Laboratory results as given in patent US9766236B2, “Taste receptor internalization assay” (PepsiCo, Inc., priority 2013, dated 2017).
Residues, ends and D or L forms follow the SMILES beside them.

Experiments:
GLUT4 = target: T1, GLUT4 (Homo sapiens, UniProt P14672); assay: High-content imaging ring assay for GLUT4 internalization in NCI-H716 cells; assay type: cell-based; conditions: endogenous GLUT4, FIG. 4B
T1 construct: we tested internalization of endogenous GLUT4 in NCI-H716 cells; endogenous in cells; host or cells: NCI-H716 (ATCC CCL-251)
T1 sequence (P14672 1-509): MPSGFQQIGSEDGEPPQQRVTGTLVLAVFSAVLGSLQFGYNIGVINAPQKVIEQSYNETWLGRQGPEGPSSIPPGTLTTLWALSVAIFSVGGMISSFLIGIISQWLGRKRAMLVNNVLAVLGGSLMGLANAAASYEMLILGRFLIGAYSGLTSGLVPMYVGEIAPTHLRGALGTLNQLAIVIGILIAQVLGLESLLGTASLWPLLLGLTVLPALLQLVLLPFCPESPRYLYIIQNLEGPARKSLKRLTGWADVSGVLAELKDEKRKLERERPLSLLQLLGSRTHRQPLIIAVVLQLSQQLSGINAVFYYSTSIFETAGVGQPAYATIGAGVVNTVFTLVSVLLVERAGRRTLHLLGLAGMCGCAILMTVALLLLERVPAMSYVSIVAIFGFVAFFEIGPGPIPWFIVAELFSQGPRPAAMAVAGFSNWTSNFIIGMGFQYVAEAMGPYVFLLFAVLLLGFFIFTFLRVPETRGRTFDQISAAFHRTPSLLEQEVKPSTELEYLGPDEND
Excerpt: The internalization assay disclosed herein, also called a “ring assay,” detects localization of receptors using antibodies specific for the receptors. A first detectable label, specific for nucleic acid (e.g., DAPI, Hoechst 33342, DRAQ5, DRAQ7, DRAQ9), is used to label cell nuclei; this labeling provides information such as the number of cells in a field and differentiates between the nuclear (e.g., DAPI-positive) and cytoplasmic (e.g., DAPI-negative) compartments. Antibodies which specifically bind to a taste receptor are used in conjunction with secondary antibodies conjugated with a second detectable label which can be differentiated from the first detectable label (e.g., FITC, TRITC, Cy3, Cy5, Alexa 350, 488, 546, 555, 568, 594, 633, 647). Diffuse circle staining is observed in the absence of a stimulus (e.g., in the presence of buffer alone). In the presence of a stimulus, however, a “ring” of internalized receptors is visualized. In some embodiments, ring-positive cells are calculated by correlation coefficient for pixel values of the nuclear and receptor signals. The extent of internalization can be expressed as percentage (mean±SD) of cells showing a continuous ring staining from multiple (e.g., quadruplicate) data points.
To explore further the role of GLUT4 in signaling by artificial sweeteners, we tested internalization of endogenous GLUT4 in NCI-H716 cells.

T2R14 = target: T2, T2R14 (Homo sapiens, UniProt Q9NYV8); assay: High-content imaging ring assay for T2R14 internalization in NCI-H716 cells; assay type: cell-based; conditions: compounds used at 10 mM, 37° C., immunofluorescence
T2 construct: These cells express the bitter receptors T2R1, T2R3, T2R4, T2R5, T2R7, T2R8, T2R9, T2R10, T2R13, T2R14; endogenous in cells; host or cells: NCI-H716 (ATCC CCL-251)
T2 sequence (Q9NYV8 1-317): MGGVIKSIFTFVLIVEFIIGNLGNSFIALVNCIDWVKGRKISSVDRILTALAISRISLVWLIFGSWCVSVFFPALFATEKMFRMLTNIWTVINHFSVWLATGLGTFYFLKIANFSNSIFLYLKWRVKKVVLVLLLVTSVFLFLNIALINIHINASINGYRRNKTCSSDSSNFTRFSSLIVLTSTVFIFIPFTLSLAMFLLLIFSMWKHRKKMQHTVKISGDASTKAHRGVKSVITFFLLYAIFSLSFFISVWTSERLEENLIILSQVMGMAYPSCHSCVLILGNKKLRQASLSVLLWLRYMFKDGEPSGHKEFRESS
Excerpt: The internalization assay disclosed herein, also called a “ring assay,” detects localization of receptors using antibodies specific for the receptors. A first detectable label, specific for nucleic acid (e.g., DAPI, Hoechst 33342, DRAQ5, DRAQ7, DRAQ9), is used to label cell nuclei; this labeling provides information such as the number of cells in a field and differentiates between the nuclear (e.g., DAPI-positive) and cytoplasmic (e.g., DAPI-negative) compartments. Antibodies which specifically bind to a taste receptor are used in conjunction with secondary antibodies conjugated with a second detectable label which can be differentiated from the first detectable label (e.g., FITC, TRITC, Cy3, Cy5, Alexa 350, 488, 546, 555, 568, 594, 633, 647). Diffuse circle staining is observed in the absence of a stimulus (e.g., in the presence of buffer alone). In the presence of a stimulus, however, a “ring” of internalized receptors is visualized. In some embodiments, ring-positive cells are calculated by correlation coefficient for pixel values of the nuclear and receptor signals. The extent of internalization can be expressed as percentage (mean±SD) of cells showing a continuous ring staining from multiple (e.g., quadruplicate) data points. NCI-H716 cell were grown in RPMI1690 media supplemented with 10% fetal bovine serum. Cells were seeded at density of 20,000 cells/well on PDL-coated 384-well plates. […] Alexa 488-conjugated antibodies and Hoechst 33342 were from Life Technology. 20,000 cells in PBS+10% FBS were plated on clear-bottom, PDL-coated, black-wall 384-well plates suitable for HCA imaging. For […] studies compounds were added to the cells. Stock solutions of all compounds were diluted in dimethyl sulfoxide (DMSO) and used at 10 mM. Control groups of cells also received DMSO (0.1%) in medium. NCI-H716 cells were stimulated with RebA (Purecircle) at 10 mM for indicating time points at 37° C. The cells were then fixed and processed for indirect immunofluorescence with antibodies against bitter receptor […]. All images were acquired with a 20× objective using ImageXpress Micro automated microscope. Hoechst 33342 staining is pseudo-colored blue and antibody specific staining is pseudo-colored green. […] The extent of internalization is expressed as the percentage (means±S.D.) of cells showing a continuous “Ring” staining from quadruplicate data points. Recycling of […] receptor correlates with decreased number of “Ring”-positive cells. Statistical analyses and graphs were made with Tibco Spotfire or GraphPad Prism.

Row | Compound | GLUT4 internalization ("Ring"-positive cells) (GLUT4) | T2R14 internalization ("Ring"-positive cells) (T2R14; FIG. 2) | T2R14 internalization ("Ring"-positive cells) (T2R14; FIG. 2, listed as Reb A)
1 | CC1=CC(=O)[N-]S(=O)(=O)O1.[K+] [Ace-K] | GLUT4 internalization increased |  | 
2 | C=C1C[C@@]23CC[C@H]4[C@@](C)(CCC[C@@]4(C)C(=O)O[C@@H]4O[C@H](CO)[C@@H](O)[C@H](O)[C@H]4O)[C@@H]2CC[C@]1(O[C@@H]1O[C@H](CO)[C@@H](O)[C@H](O[C@@H]2O[C@H](CO)[C@@H](O)[C@H](O)[C@H]2O)[C@H]1O[C@@H]1O[C@H](CO)[C@@H](O)[C@H](O)[C@H]1O)C3 [RebA] |  | T2R14 internalization increases | induces T2R14 internalization
3 | C=C1C[C@@]23CC[C@H]4[C@@](C)(CCC[C@@]4(C)C(=O)O[C@@H]4O[C@H](CO)[C@@H](O)[C@H](O)[C@H]4O)[C@@H]2CC[C@]1(O[C@@H]1O[C@H](CO)[C@@H](O)[C@H](O[C@@H]2O[C@H](CO)[C@@H](O)[C@H](O)[C@H]2O)[C@H]1O[C@@H]1O[C@@H](C)[C@H](O)[C@@H](O)[C@H]1O)C3 [RebC] |  | T2R14 internalization increases | 

The next lines start with the values.

Row | GLUT4 internalization ("Ring"-positive cells) (GLUT4) | T2R14 internalization ("Ring"-positive cells) (T2R14; FIG. 2) | T2R14 internalization ("Ring"-positive cells) (T2R14; FIG. 2, listed as Reb A) | Compound
4 |  | internalization was not observed |  | C=C1C[C@@]23CC[C@H]4[C@@](C)(CCC[C@@]4(C)C(=O)O[C@@H]4O[C@H](CO)[C@@H](O)[C@H](O)[C@H]4O[C@@H]4O[C@H](CO)[C@@H](O)[C@H](O)[C@H]4O)[C@@H]2CC[C@]1(O[C@@H]1O[C@H](CO)[C@@H](O)[C@H](O[C@@H]2O[C@H](CO)[C@@H](O)[C@H](O)[C@H]2O)[C@H]1O[C@@H]1O[C@H](CO)[C@@H](O)[C@H](O)[C@H]1O)C3 [RebD]
5 | GLUT4 internalization increased |  |  | COC(=O)[C@H](Cc1ccccc1)NC(=O)[C@@H](N)CC(=O)O [aspartame] (H-Asp-Phe-OMe)
6 | GLUT4 internalization increased |  |  | O=C1NS(=O)(=O)c2ccccc21 [saccharine]
